Patent US8344008B2 (Janssen Pharmaceutica NV, priority 2007, dated 2013)

Target: T1, recombinant human LTA4 hydrolase (rhLTA4H) (Homo sapiens, UniProt P09960)
T1 construct: made in house; host or cells: Spodoptera frugiperda (Sf-9) cells, baculovirus (pFastBac1)
T1 sequence (P09960 1-611): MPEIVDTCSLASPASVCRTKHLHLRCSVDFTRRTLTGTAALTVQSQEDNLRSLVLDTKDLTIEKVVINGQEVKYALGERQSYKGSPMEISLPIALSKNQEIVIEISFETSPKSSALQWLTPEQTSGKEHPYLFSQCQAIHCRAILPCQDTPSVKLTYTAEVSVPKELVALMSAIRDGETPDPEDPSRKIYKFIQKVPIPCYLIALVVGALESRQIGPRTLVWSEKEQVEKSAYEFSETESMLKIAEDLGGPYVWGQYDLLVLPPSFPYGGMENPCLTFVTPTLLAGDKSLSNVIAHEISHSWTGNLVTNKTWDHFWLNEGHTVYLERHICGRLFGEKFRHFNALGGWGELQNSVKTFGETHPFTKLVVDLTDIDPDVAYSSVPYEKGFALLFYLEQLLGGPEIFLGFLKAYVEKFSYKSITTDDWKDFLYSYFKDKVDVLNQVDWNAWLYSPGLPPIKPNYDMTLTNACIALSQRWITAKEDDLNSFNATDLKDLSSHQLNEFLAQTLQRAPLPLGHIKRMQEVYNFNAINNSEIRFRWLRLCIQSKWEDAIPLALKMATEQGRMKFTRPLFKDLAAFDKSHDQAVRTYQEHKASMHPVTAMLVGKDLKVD
Assay: Recombinant Human LTA4 Hydrolase Assay for LTA4 Hydrolase Inhibitor Activity
Assay type: biochemical
Details: average of results obtained; LTB4 quantified by enzyme-linked immunoassay
Outline: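 Baculovirus/Sf-9-expressed human LTA4 hydrolase (36 ng) preincubated with compound 10 min at rt in 0.1 M potassium phosphate pH 7.4, 5 mg/mL fatty-acid-free BSA. Reaction started with 9 ng LTA4 free acid, run 10 min at rt; LTB4 measured by enzyme immunoassay, IC50 from 4-parameter fit.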

| Ki [nM] | Compound |
| --- | --- |
| 360 | CC(=O)N1[C@@H]2CC[C@H]1C[C@H](NCCOc1ccc(Oc3nc4ccc(Cl)cc4s3)cc1)C2 [Example 268, meso-exo-1-(3-{2-[4-(6-Chloro-benzothiazol-2-yloxy)-phenoxy]-ethylamino}-8-aza-bicyclo[3.2.1]oct-8-yl)-ethanone] |
| 1170 | CS(=O)(=O)N1C[C@@H]2C[C@H]1CN2CCc1cccc(Oc2nc3ccccc3s2)c1 [Example 48, (S,S)-2-{3-[2-(5-Methanesulfonyl-2,5-diaza-bicyclo[2.2.1]hept-2-yl)-ethyl}phenoxy]benzothiazole] |
| 36 | O=C(c1ccc[nH]1)N1C[C@@H]2C[C@H]1CN2Cc1ccc(Oc2nc3ccccc3s2)cc1 [Example 62, (S,S)-{5-[4-(Benzothiazol-2-yloxy)-benzyl]-2,5-diaza-bicyclo[2.2.1]hept-2-yl}-(1H-pyrrol-2-yl)-methanone] |
| 50 | CC(=O)N[C@H]1C[C@H]2CC[C@@H](C1)N2Cc1ccc(Cc2nc3ccccc3o2)cc1 [Example 6, meso-endo-N-[8-(4-Benzooxazol-2-ylmethyl-benzyl)-8-aza-bicyclo[3.2.1]oct-3-yl]-acetamide] |
| 431 | NC(=O)N1C[C@H]2C[C@@H]1CN2CCOc1ccc(Oc2nc3cc(Cl)ccc3s2)cc1 [Example 176, (R,R)-5-{2-[4-(5-Chloro-benzothiazol-2-yloxy)-phenoxy]-ethyl}-2,5-diaza-bicyclo[2.2.1]heptane-2-carboxylic acid amide] |
| 94 | CC(=O)N1C[C@H]2C[C@@H]1CN2CCOc1ccc(Oc2nc3ccc(Cl)cc3s2)cc1 [Example 177, (R,R)-1-(5-{2-[4-(6-Chloro-benzothiazol-2-yloxy)-phenoxy]-ethyl}-2,5-diaza-bicyclo[2.2.1]hept-2-yl)-ethanone] |
| 69 | CC(=O)N1[C@@H]2CC[C@H]1C[C@H](NCCc1ccc(Oc3nc4ccc(F)cc4s3)cc1)C2 [Example 209, meso-exo-1-(3-{2-[4-(6-Fluoro-benzothiazol-2-yloxy)-phenyl]-ethylamino}-8-aza-bicyclo[3.2.1]oct-8-yl)-ethanone] |
| 33 | O=C(c1ccno1)N1CC2CN(Cc3ccc(Oc4nc5ccccc5s4)cc3)CC2C1 (stereo not drawn) [Example 114, {5-[4-(Benzothiazol-2-yloxy)-benzyl]-hexahydro-pyrrolo[3,4-c]pyrrol-2-yl}-isoxazol-5-yl-methanone] |
| 3 | NC(=O)N1C[C@@H]2C[C@H]1CN2CCc1ccc(Oc2nc3ccccc3s2)cc1 [Example 38, (S,S)-5-{2-[4-(Benzothiazol-2-yloxy)-phenyl]-ethyl}-2,5-diaza-bicyclo[2.2.1]heptane-2-carboxylic acid amide] |
| 38 | NC(=O)N1C[C@@H]2C[C@H]1CN2CCOc1ccc(Oc2nc3ccccc3s2)cc1 [Example 40, (S,S)-5-{2-[4-(Benzothiazol-2-yloxy)-phenoxy]-ethyl}-2,5-diaza-bicyclo[2.2.1]heptane-2-carboxylic acid amide] |
| 190 | CC(=O)N1[C@@H]2CC[C@H]1C[C@H](NCCOc1ccc(Oc3nc4cccc(F)c4s3)cc1)C2 [Example 263, meso-exo-1-(3-{2[4-(7-Fluoro-benzothiazole-2-yloxy)-phenoxy]-ethylamino}8-aza-bicyclo[3.2.1]oct-8-yl)-ethanone] |
| 1050 | CC(=O)N1[C@@H]2CC[C@H]1C[C@@H](NCCOc1ccc(Oc3nc4ccc(C)cc4s3)cc1)C2 [Example 172, meso-exo-1-(3-{2-[4-(6-Methyl-benzothiazol-2-yloxy)-phenoxy]-ethylamino}-8-aza-bicyclo[3.2.1]oct-8-yl)-ethanone] |
| 116 | CS(=O)(=O)N[C@@H]1C[C@H]2CC[C@@H](C1)N2CCOc1ccc(Oc2nc3ccc(Cl)cc3s2)cc1 [Example 225, meso-exo-N-(8-{2-[4-(6-Chloro-benzothiazol-2-yloxy)-phenoxy]-ethyl}-8-aza-bicyclo[3.2.1]oct-3-yl)-methanesulfonamide] |
| 8 | NC(=O)N[C@@H]1C[C@H]2CC[C@@H](C1)N2CCOc1ccc(Oc2nc3cccc(F)c3s2)cc1 [Example 282, meso-exo-(8-{2-[4-(7-Fluoro-benzothiazol-2-yloxy)-phenoxy]-ethyl}-8-aza-bicyclo[3.2.1]oct-3-yl)-urea] |
| 139 | Cn1cnc(S(=O)(=O)N2CC3CN(Cc4ccc(Oc5nc6ccccc6s5)cc4)CC3C2)c1 (stereo not drawn) [Example 122, 2-{4-[5-(1-Methyl-1H-imidazole-4-sulfonyl)-hexahydro-pyrrolo[3,4-c]pyrrol-2-ylmethyl]-phenoxy}-benzothiazole] |
| 32 | O=C(O)c1ccc(CN2CC3CN(Cc4ccc(Oc5nc6ccccc6s5)cc4)CC3C2)cc1 (stereo not drawn) [Example 154, 4-{5-[4-(Benzothiazol-2-yloxy)-benzyl]-hexahydro-pyrrolo[3,4-c]pyrrol-2-ylmethyl)-benzoic acid] |
| 212 | CC(=O)N1C[C@@H]2C[C@H]1CN2CCOc1ccc(Oc2nc3cc(Cl)ccc3s2)cc1 [Example 264, (S,S)-1-(5-{2-[4-(5-Chloro-benzothiazole-2-yloxy)-phenoxy]-ethyl}-2,5-diaza-bicyclo[2.2.1]hept-2-yl)-ethanone] |
| 100 | CC(=O)N[C@H]1C[C@H]2CC[C@@H](C1)N2CCOc1ccc(Oc2nc3cc(F)ccc3s2)cc1 [Example 216, meso-endo-N-(8-{2-[4-(5-Fluoro-benzothiazol-2-yloxy)-phenoxy]-ethyl}-8-aza-bicyclo[3.2.1]oct-3-yl)-acetamide] |
| 55 | CC(=O)N1CC2CCN(Cc3ccc(Oc4nc5ccccc5s4)cc3)C2C1 (stereo not drawn) [Example 86, 1-{1-[4-(Benzothiazol-2-yloxy)-benzyl]-hexahydro-pyrrolo[3,4-b]pyrrol-5-yl}-ethanone] |
| 21 | CC(C)(C)OC(=O)NC1(C(=O)N2C[C@@H]3C[C@H]2CN3Cc2ccc(Oc3nc4ccccc4s3)cc2)CC1 [Example 63, (S,S)-(1-{5-[4-(Benzothiazol-2-yloxy)-benzyl]-2,5-diaza-bicyclo[2.2.1]heptane-2-carbonyl}-cyclopropyl)-carbamic acid tert-butyl ester] |
| 98 | CC(=O)N[C@H]1C[C@H]2CC[C@@H](C1)N2Cc1ccc(Oc2nc3c(C)cccc3s2)cc1 [Example 72, meso-endo-N-{8-[4-(4-Methyl-benzothiazol-2-yloxy)-benzyl]-8-aza-bicyclo[3.2.1]oct-3-yl}-acetamide] |
| 52 | CC(C)(O)C(=O)N1C[C@H]2C[C@@H]1CN2Cc1ccc(Oc2nc3ccccc3s2)cc1 [Example 24, (R,R)-1-{5-[4-(Benzothiazol-2-yloxy)-benzyl]-2,5-diaza-bicyclo[2.2.1]hept-2-yl}-2-hydroxy-2-methyl-propan-1-one] |
| 9 | CC(C)(C)OC(=O)CN1C[C@@H]2C[C@H]1CN2Cc1ccc(Oc2nc3ccccc3s2)cc1 [Example 50, (S,S)-{5-[4-(Benzothiazol-2-yloxy)-benzyl]-2,5-diaza-bicyclo[2.2.1]hept-2-yl}-acetic acid tert-butyl ester] |
| 1 | O=C(N1C[C@@H]2C[C@H]1CN2CCOc1ccc(Oc2nc3ccccc3s2)cc1)C1(O)CC1 [Example 27, (S,S)-(5-{2-[4-(Benzothiazol-2-yloxy)-phenoxy]-ethyl}-2,5-diaza-bicyclo[2.2.1]hept-2-yl)-(1-hydroxy-cyclopropyl)-methanone] |
| 394 | CS(=O)(=O)N1[C@@H]2CC[C@H]1C[C@H](NCc1ccc(Oc3nc4ccc(F)cc4s3)cc1)C2 [Example 205, meso-exo-[4-(6-Fluoro-benzothiazol-2-yloxy)-benzyl]-(8-methanesulfonyl-8-aza-bicyclo[3.2.1]oct-3-yl)-amine] |
| 100 | O=C(CC(F)(F)F)N1CC2CN(Cc3ccc(Oc4nc5ccccc5s4)cc3)CC2C1 (stereo not drawn) [Example 113, 1-{5-[4-(Benzothiazol-2-yloxy)-benzyl]-hexahydro-pyrrolo[3,4-c]pyrrol-2-yl}-3,3,3-trifluoro-propan-1-one] |
| 20 | CS(=O)(=O)N1C[C@@H]2C[C@H]1CN2CCOc1ccc(Oc2nc3ccccc3s2)cc1 [Example 49, (S,S)-2-{4-[2-(5-Methanesulfonyl-2,5-diaza-bicyclo[2.2.1]hept-2-yl)-ethoxy]-phenoxy}-benzothiazole] |
| 163 | CC(C)(O)C(=O)N1C[C@@H]2C[C@H]1CN2CCc1cccc(Oc2nc3ccccc3s2)c1 [Example 19, (S,S)-1-(5-{2-[3-(Benzothiazol-2-yloxy)-phenyl]-ethyl}-2,5-diaza-bicyclo[2.2.1]hept-2-yl)-2-hydroxy-2-methyl-propan-1-one] |
| 414 | CC(=O)N1[C@@H]2CC[C@H]1C[C@H](NCc1ccc(Oc3nc4cc(F)ccc4s3)cc1)C2 [Example 165, meso-exo-1-{3-[4-(5-Fluoro-benzothiazol-2-yloxy)-benzylamino]-8-aza-bicyclo[3.2.1]oct-8-yl}-ethanone] |
| 3130 | CS(=O)(=O)N1[C@@H]2CC[C@H]1C[C@@H](NCCOc1ccc(Oc3nc4cccc(Cl)c4s3)cc1)C2 [Example 248, meso-endo-{2-[4-(7-Chloro-benzothiazol-2-yloxy)-phenoxy]-ethyl}-(8-methanesulfonyl-8-aza-bicyclo[3.2.1]oct-3-yl)-amine] |
